biological target: Adenosine kinase (Homo sapiens, UniProt P55263); experiment: In vitro inhibitory concentration against Adenosine kinase in cycstolic assay
Sequence (P55263 whole entry): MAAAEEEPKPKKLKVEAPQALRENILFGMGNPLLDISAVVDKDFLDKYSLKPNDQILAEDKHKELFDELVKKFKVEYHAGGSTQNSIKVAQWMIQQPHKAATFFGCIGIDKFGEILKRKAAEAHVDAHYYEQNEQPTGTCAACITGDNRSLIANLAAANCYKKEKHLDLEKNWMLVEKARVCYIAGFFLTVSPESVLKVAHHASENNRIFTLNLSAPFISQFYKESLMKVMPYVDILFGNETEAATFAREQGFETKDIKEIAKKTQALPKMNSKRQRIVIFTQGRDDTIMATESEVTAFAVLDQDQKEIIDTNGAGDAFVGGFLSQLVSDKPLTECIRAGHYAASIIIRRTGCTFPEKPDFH

Point of comparison: Nc1ncnc(C#Cc2ccc(N3CCOCC3)nc2)c1Cc1cccc(Br)c1, IC50 22 nM. Against it:
- CN(Cc1ccccc1)c1c(N)ncnc1C#Cc1ccc(N2CCOCC2)nc1 — within 1.5-fold, 30 nM
- Cn1nc(-c2cccc(Br)c2)c2c(C#Cc3ccc(N4CCOCC4)nc3)ncnc21 — 3.7-fold higher, 82 nM
- c1ccc(CCCCNc2ncnc3nc(-c4ccc(N5CCOCC5)nc4)cnc23)cc1 — 3.7-fold higher, 82 nM
- Nc1ncnc2nc(-c3ccc(N4CCOCC4)nc3)cnc12 — 21-fold higher, 460 nM
- c1ccc(CCCNc2ncnc3nc(-c4ccc(N5CCOCC5)nc4)cnc23)cc1 — 3.3-fold higher, 72 nM
- Brc1cccc(-c2[nH]nc3ncnc(C#Cc4ccc(N5CCOCC5)nc4)c23)c1 — the same, 22 nM
- CN(C)c1ccc(C#Cc2[nH]cnc3nnc(-c4cccc(Br)c4)c2-3)cn1 — 3.4-fold higher, 75 nM
- Nc1ncnc2cc(-c3ccc(N4CCOCC4)nc3)n(Cc3ccccc3)c12 — higher, > 1000 nM
- CN(C)c1ccc(C#Cc2ncnc3c2c(-c2cccc(Br)c2)nn3C)cn1 — 2.9-fold lower, 7.5 nM
- c1ccc(CCNc2ncnc3nc(-c4ccc(N5CCOCC5)nc4)cnc23)cc1 — 5.5-fold higher, 120 nM
- CN(C)c1ccc(C#Cc2ncnc3n[nH]c(-c4ccccc4)c23)cn1 — 4.5-fold higher, 100 nM
- Brc1cccc(-c2nn(Cc3ccccc3)c3ncnc(C#Cc4ccc(N5CCOCC5)nc4)c23)c1 — higher, > 1000 nM
- c1ccc2c(CCNc3ncnc4nc(-c5ccc(N6CCOCC6)nc5)cnc34)c[nH]c2c1 — 14-fold higher, 300 nM

Reference: ChEMBL document CHEMBL1138819, “Synthesis and biological evaluation of pteridine and pyrazolopyrimidine based adenosine kinase inhibitors” (Bioorg Med Chem Lett, 2004)
